Laboratory results from article PMC5997364, “OG716: Designing a fit-for-purpose lantibiotic for the treatment of Clostridium difficile infections” (PLoS ONE, 2018).
≈ marks a conversion by molar mass, not a printed value. Where “and” joins values, the source holds several entries; their conditions need not be identical. Identical values can stand only once. Like-named read-outs stand apart in the source and are kept apart here.

How the values were obtained:
C. difficile = assay: microbe, parasite or virus in culture; format: cell-based, Clostridium difficile
Method: MIC testing for C. difficile was performed by Eurofins Panlabs Taiwan LTD based on modifications from the CLSI M11-A8 broth dilution method for Bacteroides fragilis susceptibility testing. Briefly, Reinforced Clostridial Medium (RCM) was pre-reduced by over-night incubation in an anaerobic chamber (80% N2, 10% CO2, and 10% H2) prior to use. MU1140 and variants were dissolved in 100% DMSO, diluted by 2-fold serial dilution in 100% DMSO, for a total of 11 concentrations. A 4 μL aliquot of each dilution was added to 96 μL RCM in wells of a 96 well plate using a Biomek FX instrument (Beckman Coulter, USA), followed by the addition of C. difficile suspension, in RCM, 100 μL/well. The final bacterial count was 2 x 10^5 to 1 x 10^6 colony forming units/mL, in 200 μL per assay well. […] Assay plates were incubated at 35°C for 46 to 48 hr in the anaerobic chamber (A35 Anaerobic Workstation, Don Whitley, UK). Following incubation, test plates were visually examined and each well was scored for growth then the MIC was recorded as the lowest concentration that results in complete inhibition of growth. Each test substance was evaluated in duplicate. Vehicle-control and vancomycin were used as blank and positive controls, respectively. The MIC values of the vancomycin controls were consistent with the historical data against test strains (data not shown).

[1] = 1.0 mg/mL in water
Method: Five aliquots of each compound were prepared by dissolving them to 1.0 mg/mL in HPLC grade water (Fisher Scientific, USA). A total of 2 aliquots of the solution were placed in a 37°C stability chamber, and 2 aliquots were placed in a 50°C chamber. Samples were collected on days 0, 2 and 7, centrifuged at 12,000 x g for 5 min, and the supernatants were transferred to a fresh tube. Each sample was diluted 1:4 with 0.05% trifluoroacetic acid (TFA) and the purity and quantity were analyzed by HPLC as described above.

[2] = Solubility 5% D-mannitol, 5% D-mannitol in water, visual assessment
Method: To that end, approximately 10 mg of each compound was weighed on a high-precision balance and dispensed into a 1.5 mL microfuge tube.
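Throughout, for Forced degradation Δ Conc: purity and concentration determined by HPLC on aqueous solutions kept in a stability chamber, with samples analyzed at day 0 and after incubation.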
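Throughout, for Forced degradation Δ Purity: purity and concentration determined by HPLC on aqueous solutions kept in a stability chamber, with samples analyzed at day 0 and after incubation.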

| Compound | MIC 50 (C. difficile) [µg/mL] | MIC 90 (C. difficile) [µg/mL] | MIC Mode (C. difficile) [µg/mL] | MIC Range (C. difficile) [µg/mL] | Minimum Inhibitory Concentration C. difficile 103-1 (C. difficile) [µg/mL] | Minimum Inhibitory Concentration C. difficile 107-1 (C. difficile) [µg/mL] | Minimum Inhibitory Concentration C. difficile ATCC 9689 (C. difficile) [µg/mL] | Minimum Inhibitory Concentration C. difficile ATCC 43597 (C. difficile) [µg/mL] | Minimum Inhibitory Concentration C. difficile ATCC BAA-1805 (C. difficile) [µg/mL] | Minimum Inhibitory Concentration C. difficile ATCC BAA-1808 (C. difficile) [µg/mL] | Minimum Inhibitory Concentration C. difficile ATCC BAA-1874 (C. difficile) [µg/mL] | Minimum Inhibitory Concentration C. difficile ATCC BAA-1875 (C. difficile) [µg/mL] | Forced degradation Δ Conc ([1]; 2 Days at 37°C) | Forced degradation Δ Purity ([1]; 2 Days at 37°C) [%] | Forced degradation Δ Conc ([1]; 2 Days at +50°C) | Forced degradation Δ Purity ([1]; 2 Days at +50°C) [%] | Forced degradation Δ Conc ([1]; 7 Days at 37°C) | Forced degradation Δ Purity ([1]; 7 Days at 37°C) [%] | Forced degradation Δ Conc ([1]; 7 Days at +50°C) | Forced degradation Δ Purity ([1]; 7 Days at +50°C) [%] | also measured |
| --- | --- | --- | --- | --- | --- | --- | --- | --- | --- | --- | --- | --- | --- | --- | --- | --- | --- | --- | --- | --- | --- |
| C=C1NC(=O)[C@H](Cc2c[nH]c3ccccc23)NC(=O)[C@H](NC(=O)[C@H](CCCCN)NC(=O)[C@@H](N)CC(C)C)CSC[C@@H](C(=O)N[C@H]2C(=O)N3CCC[C@H]3C(=O)NCC(=O)N[C@H](C(=O)N[C@@H](C)C(=O)N[C@@H](CC(=O)O)C(=O)N/C(=C\C)C(=O)NCC(=O)N[C@@H]3CSC[C@@H]4NC(=O)[C@H](Cc5ccc(O)cc5)NC(=O)[C@@H](CS/C=C\NC4=O)NC(=O)[C@H](CC(N)=O)NC(=O)[C@H](Cc4ccccc4)NC3=O)CS[C@H]2C)NC(=O)[C@H](CC(C)C)NC1=O [OG705] | 1 (≈ 0.457 µM) | 2 (≈ 0.913 µM) | 1 (≈ 0.457 µM) | 0.5 to 2 | 0.5 | 2 | 1 | 1 | 1 | 1 | 1 | 1 | -11.4% and -11% | -0.29 | -11% | -1.32 | -12.3% and -12% | -0.61 | -26% | -3.22 | – |
| C=C1NC(=O)[C@H](Cc2c[nH]c3ccccc23)NC(=O)[C@H](NC(=O)[C@H](CCCCN)NC(=O)[C@@H](N)[C@@H](C)CC)CSC[C@@H](C(=O)N[C@H]2C(=O)N3CCC[C@H]3C(=O)NCC(=O)N[C@H](C(=O)N[C@@H](C)C(=O)N[C@@H](CC(N)=O)C(=O)N/C(=C\C)C(=O)NCC(=O)N[C@@H]3CSC[C@@H]4NC(=O)[C@H](Cc5ccc(O)cc5)NC(=O)[C@@H](CS/C=C\NC4=O)NC(=O)[C@H](CC(N)=O)NC(=O)[C@H](Cc4ccccc4)NC3=O)CS[C@H]2C)NC(=O)[C@H](CC(C)C)NC1=O [OG706] | 0.5 (≈ 0.228 µM) | 1 (≈ 0.457 µM) | 0.5 (≈ 0.228 µM) | 0.125 to 1 | 0.125 | 1 | 0.5 | 0.25 | 0.25 | 0.5 | 0.5 | 0.5 | -11.3% and -11% | -1.15 | -23% | -8.05 | -20% | -6.64 | -50.1% and -50% | -21.46 | solubility [2]: 18 to 24 mg/mL (≈ 8220 to 11000 µM) |
| C=C1NC(=O)[C@H](Cc2c[nH]c3ccccc23)NC(=O)[C@H](NC(=O)[C@H](CCCCN)NC(=O)[C@@H](N)CC(C)C)CSC[C@@H](C(=O)N[C@H]2C(=O)N3CCC[C@H]3C(=O)NCC(=O)N[C@H](C(=O)N[C@@H](C)C(=O)N[C@@H](CC(N)=O)C(=O)N/C(=C\C)C(=O)NCC(=O)N[C@@H]3CSC[C@@H]4NC(=O)[C@H](Cc5ccc(O)cc5)NC(=O)[C@@H](CS/C=C\NC4=O)NC(=O)[C@H](CC(N)=O)NC(=O)[C@H](Cc4ccccc4)NC3=O)CS[C@H]2C)NC(=O)[C@H](CC(C)C)NC1=O [OG712] | 0.25 (≈ 0.114 µM) | 0.5 (≈ 0.228 µM) | 0.25 (≈ 0.114 µM) | 0.125 to 0.5 | 0.125 | 0.5 | 0.5 | 0.25 | 0.25 | 0.25 | 0.25 | 0.5 | -4.6% and -5% | -0.21 | -8.7% and -9% | -3.01 | -9.3% and -9% | -4.63 | -45.2% and -45% | – | solubility [2]: 12 mg/mL (≈ 5480 µM) |
| C=C1NC(=O)[C@H](Cc2c[nH]c3ccccc23)NC(=O)[C@H](NC(=O)[C@H](CCCCN)NC(=O)[C@@H](N)CC(C)C)CSC[C@@H](C(=O)N[C@H]2C(=O)N3CCC[C@H]3C(=O)NCC(=O)N[C@H](C(=O)N[C@@H](C)C(=O)N[C@@H](C)C(=O)N/C(=C\C)C(=O)NCC(=O)N[C@@H]3CSC[C@@H]4NC(=O)[C@H](Cc5ccc(O)cc5)NC(=O)[C@@H](CS/C=C\NC4=O)NC(=O)[C@H](CC(N)=O)NC(=O)[C@H](Cc4ccccc4)NC3=O)CS[C@H]2C)NC(=O)[C@H](CC(C)C)NC1=O [OG713] | 0.5 (≈ 0.233 µM) | 0.5 (≈ 0.233 µM) | 0.5 (≈ 0.233 µM) | 0.25 to 0.5 | 0.25 | 0.5 | 0.5 | 0.5 | 0.25 | 0.5 | 0.5 | 0.5 | -11.9% and -12% | -0.06 | -16.9% and -17% | -1.51 | -8.8% and -9% | -0.56 | -41% | -6.98 | – |
| C=C1NC(=O)[C@H](Cc2c[nH]c3ccccc23)NC(=O)[C@H](NC(=O)[C@H](CCCCN)NC(=O)[C@@H](N)C(C)C)CSC[C@@H](C(=O)N[C@H]2C(=O)N3CCC[C@H]3C(=O)NCC(=O)N[C@H](C(=O)N[C@@H](C)C(=O)N[C@@H](CC(N)=O)C(=O)N/C(=C\C)C(=O)NCC(=O)N[C@@H]3CSC[C@@H]4NC(=O)[C@H](Cc5ccc(O)cc5)NC(=O)[C@@H](CS/C=C\NC4=O)NC(=O)[C@H](CC(N)=O)NC(=O)[C@H](Cc4ccccc4)NC3=O)CS[C@H]2C)NC(=O)[C@H](CC(C)C)NC1=O [OG716] | 0.25 (≈ 0.115 µM) | 0.5 (≈ 0.23 µM) | 0.5 (≈ 0.23 µM) | 0.25 to 0.5 | 0.25 | 0.5 | 0.5 | 0.25 | 0.25 | 0.25 | 0.5 | 0.5 | -7.4% and -7% | -0.31 | -16.9% and -17% | -3.67 | -14.8% and -15% | -5.20 | -47% | -19.77 | solubility [2]: 12 to 18 mg/mL (≈ 5520 to 8280 µM) |
